Measured values published in patent US20250277191A1, “METHODS AND COMPOSITIONS FOR CRYOPRESERVING SUBPOPULATIONS OF LYMPHOCYTES” (Ossium Health, Inc., priority 2022, published 2025).
“Also recorded” adds a separate entry of the source.

Assays:
[1] = tested on: Hematopoietic cells and bone marrow; assay: CFU assay of bone marrow after thawing cells cryopreserved in DMSO; format: cell-based, human; details: for BFU-E / CFU-E / CFU-GEMM / CFU-GM / total CFU: after thawing, average score from duplicate wells
Experimental: Bone marrow prior to DMSO addition (designated “QC1”) was washed and resuspended at a concentration of 8×10^6 cells/ml in Rinse Media. Cells were aliquoted and mixed with equal volumes of DMSO solutions to yield final concentrations of either 2.5, 5 or 10% DMSO in Rinse Media. A 2.5 ml volume of each preparation was aliquoted in triplicate to 5 ml cryovials. After equilibrating for 5 minutes, the cryovials were placed in a CryoMed Controlled Rate Freezer and frozen using the following program: • Step 1. −1° C./minute to −86° C. • Step 2. −20° C./minute to −150° C. • Step 3. Hold at −150° C. The vials were transferred to LN2 after 5 minutes at −150° C. The following day, cryovials containing cryopreserved cells were thawed in a 37° C. water bath and transferred to a biological safety cabinet after sanitizing with 70% alcohol. The cells were transferred to a centrifuge tube and pelleted. After removing the supernatant, the cells were resuspended in 12.5 ml of Selection Media. The tubes were centrifuged again and the cell pellet was resuspended in final volume of 25 ml of Selection Media. Total cell counts were obtained using a Sysmex Hematology Analyzer. CFU assays were also performed. Fresh and as well as previously cryopreserved hematopoietic cells and bone marrow preparations were analyzed by CFU assay. Given the limited sample size, statistical analysis could not be performed.

[2] = tested on: Hematopoietic cells and bone marrow; assay: Flow cytometry of HSPC and lymphocyte subsets in cryopreserved bone marrow; format: cell-based, human
Experimental: Bone marrow prior to DMSO addition (designated “QC1”) was washed and resuspended at a concentration of 8×10^6 cells/ml in Rinse Media. Cells were aliquoted and mixed with equal volumes of DMSO solutions to yield final concentrations of either 2.5, 5 or 10% DMSO in Rinse Media. A 2.5 ml volume of each preparation was aliquoted in triplicate to 5 ml cryovials. After equilibrating for 5 minutes, the cryovials were placed in a CryoMed Controlled Rate Freezer and frozen using the following program: • Step 1. −1° C./minute to −86° C. • Step 2. −20° C./minute to −150° C. • Step 3. Hold at −150° C. The vials were transferred to LN2 after 5 minutes at −150° C. The following day, cryovials containing cryopreserved cells were thawed in a 37° C. water bath and transferred to a biological safety cabinet after sanitizing with 70% alcohol. The cells were transferred to a centrifuge tube and pelleted. After removing the supernatant, the cells were resuspended in 12.5 ml of Selection Media. The tubes were centrifuged again and the cell pellet was resuspended in final volume of 25 ml of Selection Media. Total cell counts were obtained using a Sysmex Hematology Analyzer. Flow cytometry was performed using non-cryopreserved Hematopoietic cells and bone marrow QC1 sample for comparison. Panel design for flow cytometry with the following panel of conjugated antibodies (see Table 1). Each tube was stained with the viability dye 7-AAD after antibody staining. [table]

C[S+](C)[O-] [DMSO, dimethyl sulfoxide]
CFU potential ([1]; 10% DMSO compared to 2.5 or 5% DMSO, qualitative): significantly reduces | BFU-E ([1]; cryopreserved in 2.5% DMSO): 11.5 | CFU-E ([1]; cryopreserved in 2.5% DMSO): 7.5 | CFU-GEMM ([1]; cryopreserved in 2.5% DMSO): 0.5 | CFU-GM ([1]; cryopreserved in 2.5% DMSO): 7.5 | total CFU ([1]; cryopreserved in 2.5% DMSO): 27 | BFU-E ([1]; cryopreserved in 5% DMSO): 11.5 | CFU-E ([1]; cryopreserved in 5% DMSO): 6 | CFU-GEMM ([1]; cryopreserved in 5% DMSO): 0.5 | CFU-GM ([1]; cryopreserved in 5% DMSO): 9 | total CFU ([1]; cryopreserved in 5% DMSO): 27 | BFU-E ([1]; cryopreserved in 10% DMSO): 4 | CFU-E ([1]; cryopreserved in 10% DMSO): 3.5 | CFU-GEMM ([1]; cryopreserved in 10% DMSO): 0 | CFU-GM ([1]; cryopreserved in 10% DMSO): 0 | total CFU ([1]; cryopreserved in 10% DMSO): 7.5 | total CD3+ T cells ([2]; 2.5% DMSO compared to either 5 or 10%, FIG. 2B): reduced | Natural Killer cells (CD3-CD19-CD56+) ([2]; 2.5 or 5% DMSO compared with 10%, FIG. 2F): highest | percentage of viable CD45LOCD34+ HSPC in thawed products ([2]; 5% DMSO compared with 2.5 and 10% DMSO, FIG. 2A): highest; also recorded: enhanced | percentage of CD3+CD4-CD8-gd TCR+ gd T cells ([2]; 10% DMSO compared to 2.5 and 5%, FIG. 2C): lowest | gd T cells, sensitivity to DMSO concentration ([2]; across 2.5, 5 and 10% DMSO): relatively insensitive | percentage of CD4+CDRA+CCR7+ naïve T cells ([2]; across 2.5, 5 and 10% DMSO, FIG. 2D): increased with increasing DMSO concentrations; also recorded: lowest with the lower DMSO concentrations | naïve CD8+ T cells ([2]; across 2.5, 5 and 10% DMSO, significant between 2.5 and 10%, FIG. 2E): trend in decreasing; also recorded: relatively insensitive | percentage of HSPC within the total viable cell population ([2]; cryopreserved in 5% DMSO versus fresh, FIG. 1A): increased with cryopreservation | total population of T cells (CD3+) ([2]; cryopreserved in 5% DMSO versus fresh, FIG. 1B): decreased; also recorded: reduced | percentage of gd T cells ([2]; cryopreserved in 5% DMSO versus fresh, FIG. 1C): significant increase; also recorded: increased with cryopreservation | percentage of CD4+/CD8+CDRA+CCL7+ naïve T cells ([2]; cryopreserved in 5% DMSO versus fresh, FIG. 1D and 1E): significantly decreased; also recorded: reduced | percentage of NK cells ([2]; cryopreserved in 5% DMSO versus fresh, FIG. 1F): decreased following cryopreservation
